Source: patent US20230085307A1, “PYRIDAZINONE COMPOUND AND HERBICIDE” (NISSAN CHEMICAL CORPORATION, priority 2019, published 2023)

Key:
wild oat [1] = assay: Test Example 5: herbicidal effect by foliage application, plastic box (Table 20, symbol I); format: in vivo, wild oat (Avena fatua); conditions: foliage application, 320 g/ha
How it was run: (§1)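 Plants sown in sterilized diluvial soil and grown 14 days in a greenhouse at 25° C to 30° C, then sprayed on the foliage with the compound's emulsion diluted in water to a predetermined herbicide amount. Injury to weeds and crops scored three weeks after application on a visual rating scale.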

Italian ryegrass [2] = assay: Test Example 5: herbicidal effect by foliage application, plastic box (Table 20, symbol K); format: in vivo, Italian ryegrass (Lolium multiflorum); conditions: foliage application, 320 g/ha
How it was run: as §1

rice flat sedge = assay: Test Example 3: herbicidal effect by foliage application, Wagner pot (Table 18, symbol E); format: in vivo, rice flat sedge (Cyperus iria)
How it was run: (§2)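 Plants were sown in alluvial soil held under 0.1–0.5 cm standing water and grown 14 days in a greenhouse at 25–30 °C. An emulsifiable formulation, water-diluted to the set dose, was then sprayed onto the foliage, and effects were scored three weeks later using previously defined criteria.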

velvetleaf [3] = assay: Test Example 4: herbicidal effect by soil treatment (Table 19, symbol M); format: in vivo, velvetleaf (Abutilon theophrasti)
How it was run: (§3)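 Seeds were sown in sterilized diluvial soil and covered with about 1.5 cm of soil. An emulsion formulation diluted with water to a predetermined herbicide amount was sprayed evenly onto the soil surface. Plants grew in a greenhouse at 25° C. to 30° C., and the effect was scored three weeks after application using criteria from an earlier test.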

late watergrass = assay: Test Example 1: herbicidal activity, application before weed generation under submerged conditions (Table 16, symbol A); format: in vivo, late watergrass (Echinochloa oryzicola); conditions: 320 g/ha applied herbicide
How it was run: (§4)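 Submerged Wagner pots (alluvial soil, 4 cm water) sown with weed seeds and planted with 2.5-leaf rice seedlings; emulsifiable concentrate diluted in water applied to water surface on sowing day. Held in greenhouse at 25-30 °C; injury scored 0-5 by herbicidal rate after three weeks.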

green foxtail [4] = assay: Test Example 5: herbicidal effect by foliage application, plastic box (Table 20, symbol G); format: in vivo, green foxtail (Setaria viridis); conditions: foliage application, 320 g/ha
How it was run: as §1

Japanese bulrush = assay: Test Example 1: herbicidal activity, application before weed generation under submerged conditions (Table 16, symbol B); format: in vivo, Japanese bulrush (Schoenoplectus juncoides); conditions: 320 g/ha applied herbicide
How it was run: as §4

barnyard grass [5] = assay: Test Example 5: herbicidal effect by foliage application, plastic box (Table 20, symbol H); format: in vivo, barnyard grass (Echinochloa crus-galli); conditions: foliage application, 320 g/ha
How it was run: as §1

southern crabgrass [6] = assay: Test Example 5: herbicidal effect by foliage application, plastic box (Table 20, symbol F); format: in vivo, southern crabgrass (Digitaria ciliaris); conditions: foliage application, 320 g/ha
How it was run: as §1

false cleavers [7] = assay: Test Example 4: herbicidal effect by soil treatment (Table 19, symbol Q); format: in vivo, false cleavers (Galium spurium)
How it was run: as §3

oval-leafed pondweed = assay: Test Example 1: herbicidal activity, application before weed generation under submerged conditions (Table 16, symbol C); format: in vivo, oval-leafed pondweed (Monochoria vaginalis); conditions: 320 g/ha applied herbicide
How it was run: as §4

barnyard grass [8] = assay: Test Example 3: herbicidal effect by foliage application, Wagner pot (Table 18, symbol H); format: in vivo, barnyard grass (Echinochloa crus-galli)
How it was run: as §2

wild oat [9] = assay: Test Example 4: herbicidal effect by soil treatment (Table 19, symbol I); format: in vivo, wild oat (Avena fatua)
How it was run: as §3

green foxtail [10] = assay: Test Example 4: herbicidal effect by soil treatment (Table 19, symbol G); format: in vivo, green foxtail (Setaria viridis)
How it was run: as §3

false cleavers [11] = assay: Test Example 5: herbicidal effect by foliage application, plastic box (Table 20, symbol Q); format: in vivo, false cleavers (Galium spurium); conditions: foliage application, 320 g/ha
How it was run: as §1

chickweed [12] = assay: Test Example 4: herbicidal effect by soil treatment (Table 19, symbol P); format: in vivo, common chickweed (Stellaria media)
How it was run: as §3

velvetleaf [13] = assay: Test Example 5: herbicidal effect by foliage application, plastic box (Table 20, symbol M); format: in vivo, velvetleaf (Abutilon theophrasti); conditions: foliage application, 320 g/ha
How it was run: as §1

persian speedwell [14] = assay: Test Example 5: herbicidal effect by foliage application, plastic box (Table 20, symbol R); format: in vivo, Persian speedwell (Veronica persica); conditions: foliage application, 320 g/ha
How it was run: as §1

windgrass [15] = assay: Test Example 4: herbicidal effect by soil treatment (Table 19, symbol L); format: in vivo, windgrass (Apera spica-venti)
How it was run: as §3

windgrass [16] = assay: Test Example 5: herbicidal effect by foliage application, plastic box (Table 20, symbol L); format: in vivo, windgrass (Apera spica-venti); conditions: foliage application, 320 g/ha
How it was run: as §1

lambsquarters [17] = assay: Test Example 4: herbicidal effect by soil treatment (Table 19, symbol O); format: in vivo, lambsquarters (Chenopodium album)
How it was run: as §3

blackgrass [18] = assay: Test Example 4: herbicidal effect by soil treatment (Table 19, symbol J); format: in vivo, blackgrass (Alopecurus myosuroides)
How it was run: as §3

barnyard grass [19] = assay: Test Example 4: herbicidal effect by soil treatment (Table 19, symbol H); format: in vivo, barnyard grass (Echinochloa crus-galli)
How it was run: as §3

redroot pigweed [20] = assay: Test Example 4: herbicidal effect by soil treatment (Table 19, symbol N); format: in vivo, redroot pigweed (Amaranthus retroflexus)
How it was run: as §3

persian speedwell [21] = assay: Test Example 4: herbicidal effect by soil treatment (Table 19, symbol R); format: in vivo, Persian speedwell (Veronica persica)
How it was run: as §3

southern crabgrass [22] = assay: Test Example 4: herbicidal effect by soil treatment (Table 19, symbol F); format: in vivo, southern crabgrass (Digitaria ciliaris)
How it was run: as §3

Chinese sprangletop = assay: Test Example 3: herbicidal effect by foliage application, Wagner pot (Table 18, symbol D); format: in vivo, chinese sprangletop (Leptochloa chinensis)
How it was run: as §2

blackgrass [23] = assay: Test Example 5: herbicidal effect by foliage application, plastic box (Table 20, symbol J); format: in vivo, blackgrass (Alopecurus myosuroides); conditions: foliage application, 320 g/ha
How it was run: as §1

lambsquarters [24] = assay: Test Example 5: herbicidal effect by foliage application, plastic box (Table 20, symbol O); format: in vivo, lambsquarters (Chenopodium album); conditions: foliage application, 320 g/ha
How it was run: as §1

Italian ryegrass [25] = assay: Test Example 4: herbicidal effect by soil treatment (Table 19, symbol K); format: in vivo, Italian ryegrass (Lolium multiflorum)
How it was run: as §3

redroot pigweed [26] = assay: Test Example 5: herbicidal effect by foliage application, plastic box (Table 20, symbol N); format: in vivo, redroot pigweed (Amaranthus retroflexus); conditions: foliage application, 320 g/ha, evaluated three weeks after application
How it was run: as §1

chickweed [27] = assay: Test Example 5: herbicidal effect by foliage application, plastic box (Table 20, symbol P); format: in vivo, common chickweed (Stellaria media); conditions: foliage application, 320 g/ha, evaluated three weeks after application
How it was run: as §1

[28] = evaluated three weeks after application
[29] = amount of applied herbicide 320 g/ha

COc1nn(C)c(=O)c(-c2c(-c3ccc4c(c3)OCCO4)sc3ccccc23)c1O [1-198]
effect on wild oat (I) (wild oat [1]; 3 weeks after application): 0 (Herbicidal rate of 5% or less (almost no effect))
effect on Italian ryegrass (K) (Italian ryegrass [2]; 3 weeks after application): 4 (Herbicidal rate of 70% or more and less than 90%)
herbicidal effect on E (rice flat sedge), rating 0-5 (rice flat sedge; 320 g/ha): 5 (Herbicidal rate of 90% or more (almost completely withered))
M: velvetleaf, herbicidal effect rating (velvetleaf [3]; AAH 320 g/ha): 5 (Herbicidal rate of 90% or more (almost completely withered))
Herbicidal effect on A: late watergrass (grade 0-5) (late watergrass): 3 (Herbicidal rate of 40% or more and less than 70%)
effect on green foxtail (G) (green foxtail [4]; 3 weeks after application): 4 (Herbicidal rate of 70% or more and less than 90%)
Herbicidal effect on B: Japanese bulrush (grade 0-5) (Japanese bulrush): 0 (Herbicidal rate of 5% or less (almost no effect))
effect on barnyard grass (H) (barnyard grass [5]; 3 weeks after application): 2 (Herbicidal rate of 20% or more and less than 40%)
effect on southern crabgrass (F) (southern crabgrass [6]; 3 weeks after application): 4 (Herbicidal rate of 70% or more and less than 90%)
Q: false cleavers, herbicidal effect rating (false cleavers [7]; AAH 320 g/ha): 1 (Herbicidal rate of 5% or more and less than 20%)
Herbicidal effect on C: oval-leafed pondweed (grade 0-5) (oval-leafed pondweed): 0 (Herbicidal rate of 5% or less (almost no effect))
herbicidal effect on H (barnyard grass), rating 0-5 (barnyard grass [8]; 320 g/ha): 5 (Herbicidal rate of 90% or more (almost completely withered))
I: wild oat, herbicidal effect rating (wild oat [9]; AAH 320 g/ha): 0 (Herbicidal rate of 5% or less (almost no effect))
G: green foxtail, herbicidal effect rating (green foxtail [10]; AAH 320 g/ha): 5 (Herbicidal rate of 90% or more (almost completely withered))
effect on false cleavers (Q) (false cleavers [11]; 3 weeks after application): 1 (Herbicidal rate of 5% or more and less than 20%)
P: chickweed, herbicidal effect rating (chickweed [12]; AAH 320 g/ha): 5 (Herbicidal rate of 90% or more (almost completely withered))
effect on velvetleaf (M) (velvetleaf [13]; 3 weeks after application): 4 (Herbicidal rate of 70% or more and less than 90%)
effect on persian speedwell (R) (persian speedwell [14]; 3 weeks after application): 5 (Herbicidal rate of 90% or more (almost completely withered))
L: windgrass, herbicidal effect rating (windgrass [15]; AAH 320 g/ha): 0 (Herbicidal rate of 5% or less (almost no effect))
effect on windgrass (L) (windgrass [16]; 3 weeks after application): 0 (Herbicidal rate of 5% or less (almost no effect))
O: lambsquarters, herbicidal effect rating (lambsquarters [17]; AAH 320 g/ha): 0 (Herbicidal rate of 5% or less (almost no effect))
J: blackgrass, herbicidal effect rating (blackgrass [18]; AAH 320 g/ha): 0 (Herbicidal rate of 5% or less (almost no effect))
H: barnyard grass, herbicidal effect rating (barnyard grass [19]; AAH 320 g/ha): 2 (Herbicidal rate of 20% or more and less than 40%)
N: redroot pigweed, herbicidal effect rating (redroot pigweed [20]; AAH 320 g/ha): 0 (Herbicidal rate of 5% or less (almost no effect))
R: persian speedwell, herbicidal effect rating (persian speedwell [21]; AAH 320 g/ha): 5 (Herbicidal rate of 90% or more (almost completely withered))
F: southern crabgrass, herbicidal effect rating (southern crabgrass [22]; AAH 320 g/ha): 0 (Herbicidal rate of 5% or less (almost no effect))
herbicidal effect on D (Chinese sprangletop), rating 0-5 (Chinese sprangletop; 320 g/ha): 3 (Herbicidal rate of 40% or more and less than 70%)
effect on blackgrass (J) (blackgrass [23]; 3 weeks after application): 0 (Herbicidal rate of 5% or less (almost no effect))
effect on lambsquarters (O) (lambsquarters [24]; 3 weeks after application): 2 (Herbicidal rate of 20% or more and less than 40%)
K: Italian ryegrass, herbicidal effect rating (Italian ryegrass [25]; AAH 320 g/ha): 0 (Herbicidal rate of 5% or less (almost no effect))

Cc1nn(C)c(=O)c(-c2c(-c3ccc4c(c3)OCCO4)sc3ccc(Cl)cc23)c1O [2-127]
herbicidal effect on I: wild oat (wild oat [1]; [28]): 0 (Herbicidal rate of 5% or less (almost no effect))
herbicidal effect on K: Italian ryegrass (Italian ryegrass [2]; [28]): 0 (Herbicidal rate of 5% or less (almost no effect))
herbicidal effect on E: rice flat sedge (rice flat sedge; [29]): 5 (Herbicidal rate of 90% or more (almost completely withered))
herbicidal effect on N: redroot pigweed (redroot pigweed [26]): 3 (Herbicidal rate of 40% or more and less than 70%)
M: velvetleaf, herbicidal effect rating (velvetleaf [3]; [29]): 4 (Herbicidal rate of 70% or more and less than 90%)
herbicidal effect on G: green foxtail (green foxtail [4]; [28]): 0 (Herbicidal rate of 5% or less (almost no effect))
herbicidal effect on H: barnyard grass (barnyard grass [5]; [28]): 1 (Herbicidal rate of 5% or more and less than 20%)
herbicidal effect on F: southern crabgrass (southern crabgrass [6]; [28]): 0 (Herbicidal rate of 5% or less (almost no effect))
Q: false cleavers, herbicidal effect rating (false cleavers [7]; [29]): 0 (Herbicidal rate of 5% or less (almost no effect))
herbicidal effect on P: chickweed (chickweed [27]): 5 (Herbicidal rate of 90% or more (almost completely withered))
herbicidal effect on H: barnyard grass (barnyard grass [8]; [29]): 3 (Herbicidal rate of 40% or more and less than 70%)
I: wild oat, herbicidal effect rating (wild oat [9]; [29]): 0 (Herbicidal rate of 5% or less (almost no effect))
G: green foxtail, herbicidal effect rating (green foxtail [10]; [29]): 0 (Herbicidal rate of 5% or less (almost no effect))
herbicidal effect on Q: false cleavers (false cleavers [11]; [28]): 0 (Herbicidal rate of 5% or less (almost no effect))
P: chickweed, herbicidal effect rating (chickweed [12]; [29]): 3 (Herbicidal rate of 40% or more and less than 70%)
herbicidal effect on M: velvetleaf (velvetleaf [13]; [28]): 4 (Herbicidal rate of 70% or more and less than 90%)
herbicidal effect on R: persian speedwell (persian speedwell [14]; [28]): 5 (Herbicidal rate of 90% or more (almost completely withered))
L: windgrass, herbicidal effect rating (windgrass [15]; [29]): 0 (Herbicidal rate of 5% or less (almost no effect))
herbicidal effect on L: windgrass (windgrass [16]; [28]): 0 (Herbicidal rate of 5% or less (almost no effect))
O: lambsquarters, herbicidal effect rating (lambsquarters [17]; [29]): 4 (Herbicidal rate of 70% or more and less than 90%)
J: blackgrass, herbicidal effect rating (blackgrass [18]; [29]): 0 (Herbicidal rate of 5% or less (almost no effect))
H: barnyard grass, herbicidal effect rating (barnyard grass [19]; [29]): 0 (Herbicidal rate of 5% or less (almost no effect))
N: redroot pigweed, herbicidal effect rating (redroot pigweed [20]; [29]): 0 (Herbicidal rate of 5% or less (almost no effect))
R: persian speedwell, herbicidal effect rating (persian speedwell [21]; [29]): 5 (Herbicidal rate of 90% or more (almost completely withered))
F: southern crabgrass, herbicidal effect rating (southern crabgrass [22]; [29]): 0 (Herbicidal rate of 5% or less (almost no effect))
herbicidal effect on D: Chinese sprangletop (Chinese sprangletop; [29]): 0 (Herbicidal rate of 5% or less (almost no effect))
herbicidal effect on J: blackgrass (blackgrass [23]; [28]): 0 (Herbicidal rate of 5% or less (almost no effect))
herbicidal effect on O: lambsquarters (lambsquarters [24]; [28]): 3 (Herbicidal rate of 40% or more and less than 70%)
K: Italian ryegrass, herbicidal effect rating (Italian ryegrass [25]; [29]): 0 (Herbicidal rate of 5% or less (almost no effect))
